Reference: ChEMBL document CHEMBL5653631, “A Potent and Selective ULK1 Inhibitor Suppresses Autophagy and Sensitizes Cancer Cells to Nutrient Stress” (iScience, 2018)

Key:
[1] = target: T1, Ephrin type-B receptor 3 (Homo sapiens) (UniProt P54753); test: Inhibition of human recombinant EphB3 at 500 nM in presence of ATP by radiometric assay relative to control
T1 sequence (whole entry): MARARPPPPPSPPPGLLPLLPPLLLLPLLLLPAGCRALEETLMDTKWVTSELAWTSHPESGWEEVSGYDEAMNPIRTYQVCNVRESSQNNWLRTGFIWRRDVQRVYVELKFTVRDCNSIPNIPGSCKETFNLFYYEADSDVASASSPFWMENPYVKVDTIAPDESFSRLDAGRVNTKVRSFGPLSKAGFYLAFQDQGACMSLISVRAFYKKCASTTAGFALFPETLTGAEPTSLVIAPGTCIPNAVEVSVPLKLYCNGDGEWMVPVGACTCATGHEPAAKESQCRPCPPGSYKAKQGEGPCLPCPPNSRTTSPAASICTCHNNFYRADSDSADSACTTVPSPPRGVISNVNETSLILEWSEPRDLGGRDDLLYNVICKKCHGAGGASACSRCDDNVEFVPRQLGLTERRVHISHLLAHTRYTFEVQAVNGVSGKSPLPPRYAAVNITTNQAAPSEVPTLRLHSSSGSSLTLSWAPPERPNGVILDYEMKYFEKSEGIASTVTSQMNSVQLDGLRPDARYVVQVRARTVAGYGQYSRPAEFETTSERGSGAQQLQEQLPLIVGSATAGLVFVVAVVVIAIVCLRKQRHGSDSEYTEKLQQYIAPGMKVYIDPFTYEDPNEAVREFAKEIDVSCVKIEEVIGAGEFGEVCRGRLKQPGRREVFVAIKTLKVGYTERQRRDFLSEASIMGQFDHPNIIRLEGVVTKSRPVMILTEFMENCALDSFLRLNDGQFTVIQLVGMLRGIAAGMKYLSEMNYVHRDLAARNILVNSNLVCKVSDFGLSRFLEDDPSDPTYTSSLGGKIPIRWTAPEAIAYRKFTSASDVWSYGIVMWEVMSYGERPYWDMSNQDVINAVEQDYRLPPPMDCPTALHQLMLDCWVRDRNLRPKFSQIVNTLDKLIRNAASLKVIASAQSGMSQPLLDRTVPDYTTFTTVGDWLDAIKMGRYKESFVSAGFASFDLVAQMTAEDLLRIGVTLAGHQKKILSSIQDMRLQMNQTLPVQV

[2] = target: Tyrosine-protein kinase Blk (Homo sapiens) (UniProt P51451); test: Inhibition of human recombinant BLK at 500 nM related to control ULK1
Sequence of Tyrosine-protein kinase Blk (Homo sapiens) (P51451 2-505 limits assumed): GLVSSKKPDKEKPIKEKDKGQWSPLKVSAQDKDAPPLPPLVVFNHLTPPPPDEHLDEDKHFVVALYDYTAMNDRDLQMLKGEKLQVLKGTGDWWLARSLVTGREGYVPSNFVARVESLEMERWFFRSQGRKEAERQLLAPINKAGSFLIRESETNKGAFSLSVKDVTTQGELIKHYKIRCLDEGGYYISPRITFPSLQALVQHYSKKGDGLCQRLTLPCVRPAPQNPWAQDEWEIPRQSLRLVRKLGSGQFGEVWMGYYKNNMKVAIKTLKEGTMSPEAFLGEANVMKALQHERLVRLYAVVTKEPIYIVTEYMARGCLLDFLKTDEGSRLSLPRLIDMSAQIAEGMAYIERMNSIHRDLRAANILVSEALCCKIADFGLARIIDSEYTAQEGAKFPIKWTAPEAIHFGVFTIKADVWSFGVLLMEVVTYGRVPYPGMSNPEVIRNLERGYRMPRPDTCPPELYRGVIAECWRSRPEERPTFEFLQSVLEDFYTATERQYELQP

[3] = target: Receptor-interacting serine/threonine-protein kinase 2 (Homo sapiens) (UniProt O43353); test: Inhibition of human recombinant RIPK2 at 500 nM related to control ULK1
Sequence of Receptor-interacting serine/threonine-protein kinase 2 (Homo sapiens) (O43353 whole entry): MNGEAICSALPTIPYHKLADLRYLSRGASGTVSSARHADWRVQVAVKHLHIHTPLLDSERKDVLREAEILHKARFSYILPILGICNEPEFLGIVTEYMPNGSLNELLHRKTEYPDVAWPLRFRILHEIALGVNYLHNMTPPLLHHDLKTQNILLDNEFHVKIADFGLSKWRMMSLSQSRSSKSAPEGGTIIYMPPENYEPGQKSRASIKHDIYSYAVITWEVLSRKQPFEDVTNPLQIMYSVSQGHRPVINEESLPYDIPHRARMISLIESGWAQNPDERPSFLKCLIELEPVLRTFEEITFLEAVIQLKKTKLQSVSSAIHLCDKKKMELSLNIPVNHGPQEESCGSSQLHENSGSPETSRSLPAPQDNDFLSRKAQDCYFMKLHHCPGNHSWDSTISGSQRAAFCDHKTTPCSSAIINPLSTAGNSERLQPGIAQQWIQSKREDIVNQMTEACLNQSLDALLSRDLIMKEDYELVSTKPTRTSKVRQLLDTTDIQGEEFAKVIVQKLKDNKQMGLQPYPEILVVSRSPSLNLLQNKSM

[4] = target: Serine/threonine-protein kinase N2 (Homo sapiens) (UniProt Q16513); test: Inhibition of human recombinant PKN2 at 40 nM in presence of ATP by radiometric assay relative to control
Sequence of Serine/threonine-protein kinase N2 (Homo sapiens) (Q16513 whole entry, looked up): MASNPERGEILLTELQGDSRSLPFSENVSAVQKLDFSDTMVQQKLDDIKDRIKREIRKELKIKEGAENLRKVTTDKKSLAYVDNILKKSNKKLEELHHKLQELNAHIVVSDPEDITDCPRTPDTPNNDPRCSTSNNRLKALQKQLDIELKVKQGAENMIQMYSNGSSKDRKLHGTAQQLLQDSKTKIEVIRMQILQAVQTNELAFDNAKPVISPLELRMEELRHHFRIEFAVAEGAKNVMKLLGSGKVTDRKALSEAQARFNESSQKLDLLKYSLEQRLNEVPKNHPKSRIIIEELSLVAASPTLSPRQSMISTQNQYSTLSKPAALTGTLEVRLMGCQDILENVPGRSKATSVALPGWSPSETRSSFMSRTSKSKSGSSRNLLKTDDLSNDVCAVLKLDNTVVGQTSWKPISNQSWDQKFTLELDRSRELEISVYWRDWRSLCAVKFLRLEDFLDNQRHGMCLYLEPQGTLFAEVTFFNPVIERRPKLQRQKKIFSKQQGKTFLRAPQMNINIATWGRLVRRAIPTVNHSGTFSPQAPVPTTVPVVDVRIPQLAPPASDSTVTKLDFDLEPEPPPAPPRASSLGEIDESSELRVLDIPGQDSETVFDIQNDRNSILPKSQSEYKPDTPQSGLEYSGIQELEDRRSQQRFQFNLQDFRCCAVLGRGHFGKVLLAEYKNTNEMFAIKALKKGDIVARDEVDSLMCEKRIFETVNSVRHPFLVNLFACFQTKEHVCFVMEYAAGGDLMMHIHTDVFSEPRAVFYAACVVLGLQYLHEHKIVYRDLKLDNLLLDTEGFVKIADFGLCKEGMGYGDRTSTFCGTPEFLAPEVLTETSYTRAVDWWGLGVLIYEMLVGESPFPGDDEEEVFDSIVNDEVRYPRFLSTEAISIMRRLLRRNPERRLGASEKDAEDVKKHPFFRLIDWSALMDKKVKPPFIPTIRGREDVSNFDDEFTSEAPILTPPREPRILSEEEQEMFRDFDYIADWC

[5] = target: Tyrosine-protein kinase Yes (Homo sapiens) (UniProt P07947); test: Inhibition of human recombinant YES at 40 nM in presence of ATP by radiometric assay relative to control
Sequence of Tyrosine-protein kinase Yes (Homo sapiens) (P07947 2-543 limits assumed): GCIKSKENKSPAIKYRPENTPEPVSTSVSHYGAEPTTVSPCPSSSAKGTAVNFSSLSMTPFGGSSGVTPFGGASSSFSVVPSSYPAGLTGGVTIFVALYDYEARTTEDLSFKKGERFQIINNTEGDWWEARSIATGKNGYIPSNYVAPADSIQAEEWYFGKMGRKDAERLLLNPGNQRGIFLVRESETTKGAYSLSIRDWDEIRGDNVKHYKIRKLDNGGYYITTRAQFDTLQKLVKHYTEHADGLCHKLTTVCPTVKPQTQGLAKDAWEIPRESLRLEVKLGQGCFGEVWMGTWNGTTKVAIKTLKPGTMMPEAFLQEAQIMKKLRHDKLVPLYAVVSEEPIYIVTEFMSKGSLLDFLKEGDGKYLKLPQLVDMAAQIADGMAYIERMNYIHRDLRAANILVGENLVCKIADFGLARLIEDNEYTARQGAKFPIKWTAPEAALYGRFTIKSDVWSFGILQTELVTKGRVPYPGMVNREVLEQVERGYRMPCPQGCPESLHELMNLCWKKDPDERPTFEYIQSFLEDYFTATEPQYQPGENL

[6] = target: T2, Inhibitor of nuclear factor kappa-B kinase subunit alpha (Homo sapiens) (UniProt O15111); test: Inhibition of human recombinant IKKa at 40 nM in presence of ATP by radiometric assay relative to control
T2 sequence (whole entry): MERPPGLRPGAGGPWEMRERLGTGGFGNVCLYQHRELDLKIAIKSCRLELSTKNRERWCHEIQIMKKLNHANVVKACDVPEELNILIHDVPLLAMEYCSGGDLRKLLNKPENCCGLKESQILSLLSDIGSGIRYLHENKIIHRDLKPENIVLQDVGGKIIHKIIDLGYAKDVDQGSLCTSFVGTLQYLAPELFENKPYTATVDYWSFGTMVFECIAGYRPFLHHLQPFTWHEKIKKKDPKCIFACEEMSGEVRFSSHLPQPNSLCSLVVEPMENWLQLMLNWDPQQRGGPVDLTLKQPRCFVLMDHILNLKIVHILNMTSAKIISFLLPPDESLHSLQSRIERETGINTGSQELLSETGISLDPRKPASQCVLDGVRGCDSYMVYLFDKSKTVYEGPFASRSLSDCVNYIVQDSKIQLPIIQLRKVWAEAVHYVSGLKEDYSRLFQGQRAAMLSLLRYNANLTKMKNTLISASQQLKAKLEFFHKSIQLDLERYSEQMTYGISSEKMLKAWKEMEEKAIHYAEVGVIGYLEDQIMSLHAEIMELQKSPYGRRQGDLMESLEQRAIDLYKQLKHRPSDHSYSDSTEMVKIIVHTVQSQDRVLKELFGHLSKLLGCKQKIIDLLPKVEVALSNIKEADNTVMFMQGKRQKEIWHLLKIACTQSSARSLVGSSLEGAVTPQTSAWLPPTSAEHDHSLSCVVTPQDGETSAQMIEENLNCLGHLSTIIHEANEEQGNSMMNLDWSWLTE

Structure (SMILES) | inhibition [1] | fold change (FC) [2] | fold change (FC) [3] | inhibition [4] | inhibition [5] | inhibition [6]
CNC(=O)c1ccccc1Oc1nc(Nc2cc(OC)c(OC)c(OC)c2)ncc1Br | 0% | 0.39 | 0 |  |  | 
O=C(N[C@@H](C1CC1)C(F)(F)F)c1cc(-c2cnn3cc(-c4ccc(F)cc4)cnc23)cs1 |  |  |  | 0% | 23% | 0%
